Laboratory results: patent US5753658A, “Quinolonecarboxylic acid derivatives” (Senju Pharmaceutical Co., Ltd., priority 1993, dated 1998)
In brackets after ≈: the same amount, converted by molar mass.

Columns and labels:
S. aureus IFO 13276 = assay: Antibacterial test (minimum inhibitory concentration), method designated by Japan Society of Chemotherapy; assay type: cell-based, Staphylococcus aureus; conditions: for MIC: Staphylococcus aureus, IFO13276, S. aureus IFO 13276, Gram's stain +, 10^6 cells/ml
Method: (§1) Antibacterial test was carried out according to the method designated by Japan Society of Chemotherapy in Chemotherapy, 29 (1): 76 (1981), the content of which is herein incorporated by reference. Each of the compounds obtained in Examples 2, 4 and 7 is tested. As a control drug, 1-ethyl-6,8-difluoro-1,4-dihydro-4-oxo-7-(1-piperazinyl)-3-quinolinecarboxylic acid was used, which is represented by formula IV when R1 is hydrogen, R3 is ethyl, R4 and R5 are hydrogen, and Z is piperazinyl.
(§2) The results are shown in Table 1 in terms of minimum inhibitory concentration (MIC).

P. aeruginosa IFO 13275 = assay: as above; assay type: cell-based; conditions: Pseudomonas aeruginosa, IFO13275; P. aeruginosa IFO 13275, Gram's stain -, 10^6 cells/ml
Method: as §1, §2

SMILES	MIC (S. aureus IFO 13276)	antibacterial activity compared with the control drug (in words) (S. aureus IFO 13276; against S. aureus, versus control drug)	MIC (P. aeruginosa IFO 13275)
CCn1cc(C(=O)O)c(=O)c2cc(F)c(N3CCN(S(=O)(=O)c4ccc(N)cc4)CC3)c(F)c21 [Example 2, 1-Ethyl-6,8-difluoro-1,4-dihydro-4-oxo-7-[4-(4-aminobenzenesulfonyl)-1-piperazinyl]-3-quinolinecarboxylic acid]	0.2 mg/L (≈ 0.406 µM)	more potent antibacterial activity than the control drug	< 0.025 mg/L
CCn1cc(C(=O)O)c(=O)c2cc(F)c(N3CCN(S(=O)(=O)c4ccc(F)cc4)CC3)c(F)c21 [Example 7, 1-Ethyl-6,8-difluoro-1,4-dihydro-4-oxo-7-[4-(4-fluorobenzenesulfonyl)-1-piperazinyl]-3-quinolinecarboxylic acid]	0.78 mg/L (≈ 1.57 µM)	–	< 0.025 mg/L
CCn1cc(C(=O)O)c(=O)c2cc(F)c(N3CCN(S(=O)(=O)c4ccc(C)cc4)CC3)c(F)c21 [Example 4, 1-Ethyl-6,8-difluoro-1,4-dihydro-4-oxo-7-[4-(4-methylbenzenesulfonyl)-1-piperazinyl]-3-quinolinecarboxylic acid]	0.78 mg/L (≈ 1.59 µM)	–	< 0.025 mg/L
CCn1cc(C(=O)O)c(=O)c2cc(F)c(N3CCNCC3)c(F)c21 [Control drug, 1-ethyl-6,8-difluoro-1,4-dihydro-4-oxo-7-(1-piperazinyl)-3-quinolinecarboxylic acid, reference compound]	0.39 mg/L (≈ 1.16 µM)	–	< 0.025 mg/L
